Test results from ChEMBL document CHEMBL3352232, “Discovery of pyridyl sulfonamide 11-beta-hydroxysteroid dehydrogenase type 1 (11β-HSD1) inhibitors for the treatment of metabolic disorders” (Bioorg Med Chem Lett, 2014).
Values after ≈ are worked out from the molar mass of the structure shown.

What was measured:
[1] = Aqueous solubility of the compound; type: physicochemical
[2] = target: 11-beta-hydroxysteroid dehydrogenase 1 (Homo sapiens, UniProt P28845); assay: Inhibition of human 11-betaHSD1 by biochemical assay
[3] = Stability in human liver microsomes assessed as compound remaining after 10 mins; type: ADME; settings: read-out: Stability
[4] = Stability in mouse liver microsomes assessed as compound remaining after 10 mins; type: ADME; settings: read-out: Stability
[5] = target: 11-beta-hydroxysteroid dehydrogenase 1 (Mus musculus, UniProt P50172); assay: Inhibition of mouse 11-betaHSD1 by biochemical assay
[6] = Stability in rat liver microsomes assessed as compound remaining after 10 mins; type: ADME; settings: read-out: Stability

Chain of 11-beta-hydroxysteroid dehydrogenase 1 (Homo sapiens, UniProt P28845) (P28845 whole entry): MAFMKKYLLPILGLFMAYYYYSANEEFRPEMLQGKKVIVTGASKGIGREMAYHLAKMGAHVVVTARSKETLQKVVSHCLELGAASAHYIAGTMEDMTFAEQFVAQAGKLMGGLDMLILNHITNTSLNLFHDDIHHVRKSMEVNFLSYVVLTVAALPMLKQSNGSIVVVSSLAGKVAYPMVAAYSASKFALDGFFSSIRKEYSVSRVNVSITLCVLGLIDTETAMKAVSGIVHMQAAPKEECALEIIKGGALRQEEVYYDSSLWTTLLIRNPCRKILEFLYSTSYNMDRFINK
Chain of 11-beta-hydroxysteroid dehydrogenase 1 (Mus musculus, UniProt P50172) (P50172 whole entry): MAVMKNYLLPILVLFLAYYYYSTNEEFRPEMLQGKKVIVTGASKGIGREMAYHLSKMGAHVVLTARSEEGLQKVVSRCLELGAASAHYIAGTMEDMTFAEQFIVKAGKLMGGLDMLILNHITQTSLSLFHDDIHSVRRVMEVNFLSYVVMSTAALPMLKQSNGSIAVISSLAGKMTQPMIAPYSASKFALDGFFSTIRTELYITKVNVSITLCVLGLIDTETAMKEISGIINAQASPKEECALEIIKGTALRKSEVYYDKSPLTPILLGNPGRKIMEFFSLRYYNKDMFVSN

| Structure (SMILES) | solubility [1] | IC50 [2] | remaining at 10 min [3] | remaining at 10 min [4] | IC50 [5] | remaining at 10 min [6] |
| --- | --- | --- | --- | --- | --- | --- |
| N#Cc1ccc(-c2cccc(S(=O)(=O)N3CCC(C4CCCCC4)CC3)n2)cc1 | < 1 µg/mL | 9 nM |  |  |  |  |
| N#Cc1ccc(-c2cccc(S(=O)(=O)N3CCC(N4CCOCC4)C3)n2)cc1 (centres undefined) | 14 µg/mL (≈ 35.1 µM) | 160 nM |  |  |  |  |
| CC1CCN(S(=O)(=O)c2cccc(-c3ccc(Cl)cc3)n2)CC1 | 1 µg/mL (≈ 2.85 µM) | 55 nM |  |  |  |  |

The remaining lines, values ahead:

| solubility [1] | IC50 [2] | remaining at 10 min [3] | remaining at 10 min [4] | IC50 [5] | remaining at 10 min [6] | Structure (SMILES) |
| --- | --- | --- | --- | --- | --- | --- |
| 2 µg/mL (≈ 5.86 µM) | 49 nM |  |  |  |  | CC1CCN(S(=O)(=O)c2cccc(-c3ccc(C#N)cc3)n2)CC1 |
| 1 µg/mL (≈ 2.85 µM) | 310 nM |  |  |  |  | CC1CCN(S(=O)(=O)c2cccc(-c3cccc(Cl)c3)n2)CC1 |
|  | 160 nM |  |  |  |  | CC1CCN(C(=O)c2ccc(CSc3ccc(Cl)cc3)cc2)CC1 |
| 48 µg/mL (≈ 124 µM) | 30 nM | 62% | 7% | Not Active | 4% | O=S(=O)(c1cccc(-c2ccccc2)n1)N1CCC(N2CCOCC2)CC1 |
| 270 µg/mL (≈ 681 µM) | 980 nM |  |  |  |  | N#Cc1ccc(-c2cccc(S(=O)(=O)N3CCC(N4CCCC4)CC3)n2)cc1 |
